Our source for the Activity, EC50 and Imax values is ChEMBL document CHEMBL4765428, “Design, synthesis, and electrophysiological evaluation of NS6740 derivatives: Exploration of the structure-activity relationship for alpha7 nicotinic acetylcholine receptor silent activation” (Eur J Med Chem, 2020).

The target of assay [1] is T1, Neuronal acetylcholine receptor subunit alpha-7 (Homo sapiens, UniProt P36544). The experiment in a line: Partial agonist activity at human alpha7 nAChR expressed in Xenopus laevis oocytes assessed as inhibition of Ach response at 10 to 30 uM at -60 mV holding potential by measuring net charge preincubated with compound followed by Ach addition by two electrode voltage-clamp assay. Format: cell-based. The settings on record: Oocyte, dose 10-30 µM. Background: In two-electrode clamp one electrode senses voltage and the other passes current.

Assay [2] concerns the target T1, Neuronal acetylcholine receptor subunit alpha-7. The experiment in a line: Partial agonist activity at human alpha7 nAChR expressed in Xenopus laevis oocytes at 10 uM at -60 mV holding potential by measuring net charge by two electrode voltage-clamp assay. Format: cell-based. Conditions: Oocyte.
Assay [3] shares this target. As to the kind of experiment: Partial agonist activity at human alpha7 nAChR expressed in Xenopus laevis oocytes assessed as residual potentiation of Ach response at 10 uM at -60 mV holding potential by measuring net charge preincubated with compound followed by Ach addition after PNU-120596 addition by two electrode voltage-clamp assay. The class given is cell-based. Conditions: Oocyte.

Assay [4] shares this target. The experiment in a line: Partial agonist activity at human alpha7 nAChR expressed in Xenopus laevis oocytes assessed as direct potentiation of Ach response at 10 uM at -60 mV holding potential by measuring net charge co-application of compound and PNU-120596 by two electrode voltage-clamp assay. The class given is cell-based. The settings on record: Oocyte.
The target is the same in assay [5]. As to the kind of experiment: Partial agonist activity at human alpha7 nAChR expressed in Xenopus laevis oocytes at -60 mV holding potential by two electrode voltage-clamp assay. Format: cell-based, Oocyte. Conditions: for Imax: Oocyte, filed as partial agonist.
Assay [6] shares this target. As to the kind of experiment: Partial agonist activity at human alpha7 nAChR expressed in Xenopus laevis oocytes assessed as residual potentiation of Ach response at 30 uM at -60 mV holding potential by measuring net charge preincubated with compound followed by Ach addition after PNU-120596 addition by two electrode voltage-clamp assay. Format: cell-based. The settings on record: Oocyte, filed as partial agonist.

Assay [7] shares this target. The experiment in a line: Partial agonist activity at human alpha7 nAChR expressed in Xenopus laevis oocytes at 1 to 30 uM at -60 mV holding potential by two electrode voltage-clamp assay. Format: cell-based. Conditions: Oocyte, dose 1-30 µM.
For assay [8] the target is unchanged. As to the kind of experiment: Partial agonist activity at human alpha7 nAChR expressed in Xenopus laevis oocytes assessed as inhibition of Ach response at 30 uM at -60 mV holding potential by measuring net charge preincubated with compound followed by Ach stimulation by two electrode voltage-clamp assay. The class given is cell-based. Conditions: Oocyte, filed as partial agonist.

For assay [9] the target is unchanged. As to the kind of experiment: Partial agonist activity at human alpha7 nAChR expressed in Xenopus laevis oocytes assessed as inhibition of Ach response at 3 uM at -60 mV holding potential by measuring net charge preincubated with compound followed by Ach stimulation by two electrode voltage-clamp assay. The settings on record: Oocyte. The class given is cell-based.

Assay [10] shares this target. The experiment in a line: Partial agonist activity at human alpha7 nAChR expressed in Xenopus laevis oocytes assessed as residual potentiation of Ach response at 3 uM at -60 mV holding potential by measuring net charge preincubated with compound followed by Ach addition after PNU-120596 addition by two electrode voltage-clamp assay. Conditions: Oocyte, filed as partial agonist. The class given is cell-based.

Assay [11] has the same target. As to the kind of experiment: Partial agonist activity at human alpha7 nAChR expressed in Xenopus laevis oocytes assessed as direct potentiation of Ach response at 30 uM at -60 mV holding potential by measuring net charge co-application of compound and PNU-120596 by two electrode voltage-clamp assay. The class given is cell-based. The settings on record: Oocyte, filed as partial agonist.

Active and inactive are the calls of the source. The calls are words filed in the database; no cut-off is given here.

T1 sequence (P36544 whole entry): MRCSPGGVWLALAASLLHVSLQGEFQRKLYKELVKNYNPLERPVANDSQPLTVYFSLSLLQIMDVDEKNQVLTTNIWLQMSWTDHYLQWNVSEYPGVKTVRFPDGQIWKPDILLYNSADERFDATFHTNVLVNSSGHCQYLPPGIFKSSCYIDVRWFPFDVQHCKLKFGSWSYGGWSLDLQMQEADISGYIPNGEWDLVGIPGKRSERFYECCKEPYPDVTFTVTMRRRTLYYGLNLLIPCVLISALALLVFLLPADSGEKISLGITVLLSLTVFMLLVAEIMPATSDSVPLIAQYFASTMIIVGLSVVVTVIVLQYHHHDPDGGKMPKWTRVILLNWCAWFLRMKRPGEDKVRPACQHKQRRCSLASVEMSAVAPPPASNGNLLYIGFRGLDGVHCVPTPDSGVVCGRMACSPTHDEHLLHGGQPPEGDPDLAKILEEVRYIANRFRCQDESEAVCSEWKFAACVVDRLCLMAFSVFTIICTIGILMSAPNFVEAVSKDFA

For the compound `O=C(c1ccc(-c2cccc(C(F)(F)F)c2)o1)N1CC2CCN(CC2)C1`, the outcome in assay [1], in [2], in assay [3] and in assay [4] was inactive.

For `FC(F)(F)c1cccc(-c2ccc(CN3CCN4CCC3CC4)o2)c1`, the result in assay [2], in [3] and in assay [4] was inactive.

In the case of `O=C(c1ccc(-c2cccc(C(F)(F)F)c2)o1)N1C[C@@H]2C[C@H]1CN2`, the outcome in assay [1], in assay [2] and in [3] was inactive. Also, the Activity in assay [4] (filed as partial agonist) was 15.2.

With `CCN(CC)C(=O)c1ccc(-c2cccc(C(F)(F)F)c2)o1`, the outcome in assay [1], in [2], in assay [3] and in assay [4] was inactive.

Take `Cc1cccc(-c2ccc(C(=O)N3CCN4CCC3CC4)o2)c1`: the Activity in assay [1] (filed as partial agonist) is 0.2; in assay [3] (filed as partial agonist) it was 30.7. For the same compound, the outcome in assay [2] was inactive.

Regarding `CC(=O)N1CCN2CCC1CC2`, the outcome in assay [2] and in [3] was inactive. Moreover, the outcome in assay [4] (filed as partial agonist) was Active.

Regarding `O=C(c1ccc(-c2cncc3ccccc23)o1)N1CCN2CCC1CC2`, the Activity stood at 0.94 in assay [1] (filed as partial agonist), 0.11 in assay [2] (filed as partial agonist) and 20.4 in assay [4] (filed as partial agonist). Further, in assay [3], the outcome was inactive.

Take `O=C(c1ccc(-c2cccc(C(F)(F)F)c2)o1)N1C[C@H]2C[C@@H]1CN2`: the outcome in assay [1], in [2] and in assay [3] was inactive. Further, the Activity in assay [4] (filed as partial agonist) was 43.7.

Turning to `O=C(c1ccc(-c2ccc(C(F)(F)F)cc2)o1)N1CCN2CCC1CC2`, the Activity in assay [1] (filed as partial agonist) worked out at 0.64; in assay [2] (filed as partial agonist), 0.4; in assay [3] (filed as partial agonist), 3.23; in assay [4] (filed as partial agonist), 6.25.

Take `O=C(c1ccc(-c2cccc([N+](=O)[O-])c2)o1)N1CCN2CCC1CC2`: the result in assay [1] and in [2] was inactive. Besides, the Activity was 4.78 in assay [3] (filed as partial agonist) and 12.2 in [4] (filed as partial agonist).

For the compound `O=C(c1ccc(-c2cccc(Cl)c2)o1)N1CCN2CCC1CC2`, the Activity in [1] came out at 0.04. Moreover, the result in assay [2] was inactive. Also, the outcome in assay [3] (filed as partial agonist) was Active.

On to `C[N+]12CCC(CC1)N(C(=O)c1ccc(-c3cccc(C(F)(F)F)c3)o1)CC2`, for which the Activity in [2] (filed as partial agonist) is 0.79; in [3] (filed as partial agonist), 1.39. The response in assay [5] was half-maximal at 322 nM (EC50). Also, the Imax in assay [5] amounted to 0.81. In assay [4] (filed as partial agonist), the result was Active.

With `O=C(c1ccc(-c2cccc(I)c2)o1)N1CCN2CCC1CC2`, the result in assay [1] (filed as partial agonist) and in assay [3] (filed as partial agonist) was Active. The result in assay [2] was inactive.

As to `O=C(c1ccc(-c2ccccc2)o1)N1CCN2CCC1CC2`, the Activity in assay [1] (filed as partial agonist) turned out to be 0.14; in [2] (filed as partial agonist), 0.54; in assay [3] (filed as partial agonist) it was 18.3.

For `O=C(c1ccco1)N1CCN2CCC1CC2`, the Activity in [2] (filed as partial agonist) amounted to 0.71. Also, the outcome in assay [3] was inactive. Further, in assay [5], the EC50 (as a rule, the concentration at which the effect is half-maximal) was 764 nM and the Imax amounted to 0.71. For the same compound, the result in [4] (filed as partial agonist) was Active.

As for `O=C(c1ccc(-c2ccc3ccccc3c2)o1)N1CCN2CCC1CC2`, the Activity in [1] (filed as partial agonist) came out at 1.18; in assay [2] (filed as partial agonist) it was 0.15. The result in assay [3] and in assay [4] was inactive.

As for `O=C(c1ccc(-c2cccc(C(F)(F)F)c2)o1)N1CCN2CCC1CC2`, the Activity in assay [1] (filed as partial agonist) turned out to be 0.19; in assay [6], 57.4; in assay [8] it was 0.18; in assay [3] (filed as partial agonist), 111; in assay [10], 123; in assay [11], 2.73. Moreover, the outcome in assay [7] and in assay [9] was inactive.

Regarding `O=C(c1ccc(-c2ccoc2)o1)N1CCN2CCC1CC2`, the result in [1] (filed as partial agonist), in [2] (filed as partial agonist) and in assay [3] (filed as partial agonist) was Active.

Take `CCN1CCN2CCC1CC2`: the outcome in assay [1], in assay [2] and in assay [4] was inactive.

For `O=C(c1ccc(-c2cccc(F)c2)o1)N1CCN2CCC1CC2`, the result in assay [1] (filed as partial agonist) and in assay [3] (filed as partial agonist) was Active. Further, the result in [2] was inactive.

For `C1CN2CCC(CC2)N1`, the outcome in [1], in [2], in assay [3] and in [4] was inactive.

On to `Nc1cccc(-c2ccc(C(=O)N3CCN4CCC3CC4)o2)c1`, for which the results for the Activity in assay [1] (filed as partial agonist), in assay [2] (filed as partial agonist) and in assay [4] (filed as partial agonist) were 0.5, 0.1 and 24.6, respectively.

As to `O=C(c1ccc(-c2cccc(O)c2)o1)N1CCN2CCC1CC2`, the result in assay [1] and in assay [2] was inactive. The outcome in assay [3] (filed as partial agonist) was Active.

For the compound `O=C(c1ccc(-c2cccc(Br)c2)o1)N1CCN2CCC1CC2`, the outcome in assay [1] (filed as partial agonist) and in assay [3] (filed as partial agonist) was Active. For the same compound, the result in assay [2] was inactive.
